{
  "source": "patent US7857962B2",
  "about": "“Potentiometric electrode, gradient polymer, uses and method of preparation therefor” (Universiteit Antwerpen, priority 2004, dated 2010)",
  "origin": "cited, not measured here",
  "data": [
    {"settings": "basic drugs named for comparison", "values": [
      {"smiles": "CN(Cc1cc(Br)cc(Br)c1N)C1CCCCC1", "note": "[bromhexine, reference compound]", "log P": 4.03},
      {"smiles": "Nc1c(Br)cc(Br)cc1CN[C@H]1CC[C@H](O)CC1", "note": "[ambroxol, reference compound]", "log P": 3.24},
      {"smiles": "CC(C)(C)NCC(O)c1cc(Cl)c(N)c(Cl)c1", "note": "(centres unmarked) [clenbuterol, reference compound]", "log P": 2.91}
    ]},
    {"settings": "organic acid analytes; n-octanol/water", "values": [
      {"smiles": "O=C(O)/C=C/C(=O)O", "note": "[Fumaric, fumaric acid]", "Log P": "+0.49"},
      {"smiles": "O=C(O)C(O)C(O)C(=O)O", "note": "(centres unmarked) [Tartaric, tartaric acid]", "Log P": "−1.39"},
      {"smiles": "CC(O)C(=O)O", "note": "(centres unmarked) [Lactic, lactic acid]", "Log P": "−1.31"},
      {"smiles": "O=C(O)CC(O)C(=O)O", "note": "(centres unmarked) [Malic, malic acid]", "Log P": "−1.22"},
      {"smiles": "O=C(O)CCC(=O)O", "note": "[Succinic, succinic acid]", "Log P": "−1.11"}
    ]}
  ]
}
